In brackets after ≈: the same amount, converted by molar mass. Where two headings read alike, the source gives them in different places. Square brackets hold non-standard residues; d marks the D form. Ends that are not written are not given here. Peptide text beside a SMILES is read from it. Orn = NCCC[C@H](N)C(=O)O; Dab = NCC[C@H](N)C(=O)O; Aib = CC(C)(N)C(=O)O
Legend:
[1] = test system: E. coli DH5α; format: cell-based, Escherichia coli
Experimental: (§1) The selected bacterial strains were obtained from the Biological Resource Center, NITE (NBRC; Tokyo, Japan). Escherichia coli DH5α cells were purchased from BioDynamics Laboratory, Inc. (Tokyo, Japan). The antimicrobial activities of the peptides against […] and three Gram-negative bacteria, S. aureus NBRC 13276, E. coli DH5α, P. aeruginosa NBRC 13275, and MDRP were measured using the standard broth microdilution method, as previously described. Briefly, the bacteria were inoculated and grown overnight at 37 °C on the media for other organisms i (agar medium) and then collected with the media for other organisms ii (liquid medium), according to the Japanese Pharmacopoeia 17th Edition. Each peptide was 2-fold serially diluted with an initial concentration of 4000 μM–1.56 μM in PBS for use. Next, 10 μL of the peptide solution per well was added to each well of a sterile 96-well plate. Subsequently, 90 μL per well of inoculation with 10^4 CFUs (colony forming units) per mL was added to each well, and the plate was incubated for 18 h at 35 °C.

[2] = test system: S. aureus NBRC 13276; format: cell-based, Staphylococcus aureus; details: NBRC 13276, 18 h
Experimental: as §1

[3] = test system: human red blood cells; details: human RBCs in 172 mM Tris-HCl pH 7.6, 30 min at 37 °C, 100 to 0.39 μM, absorbance 535 nm; DMSO = 0%, M-Lycotoxin = 100%
Experimental: Human red blood cells (RBCs) were kindly supplied by the Japanese Red Cross Society (Tokyo, Japan) and were collected from volunteers under informed consent. The hemolysis test of peptides was performed using a previously reported method. In short, the RBCs were washed three times with 172 mM Tris-HCl buffer (pH = 7.6, wash buffer: WB), and 1.0 mL of sedimented erythrocytes was then transferred to 9.0 mL of WB. Then, 0.5 mL of this suspension was diluted in WB, and 50 µL of RBC suspension was incubated with 50 µL of each peptide for 30 min at 37 °C (final peptide conc from 100 to 0.39 μM). The suspensions were then centrifuged for 5 min at 400 rpm. The absorbance of the supernatant was measured at a wavelength of 535 nm. M-Lycotoxin [26] was used as a positive control, and the absorbances of the sample by treatment of DMSO and M-Lycotoxin were defined as 0 and 100%.

[4] = test system: P. aeruginosa NBRC 13275; format: cell-based, Pseudomonas aeruginosa; details: NBRC 13275, 18 h
Experimental: as §1

[5] = test system: MDRP; format: cell-based, multidrug-resistant Pseudomonas aeruginosa; details: 18 h
Experimental: as §1

[6] = target: proteinase K (Parengyodontium album, UniProt P06873); assay: Digestion assay with proteinase K; format: in vitro ADME; details: proteinase K 0.002% (v/v), peptide 1 mM, 37 °C, 2–24 h, HPLC; replacing Lys with Orn
Experimental: (§2) The digestion assay was performed using Proteinase K of the digestive enzyme. Peptides (1 mM) were treated with 0.002% (v/v) Proteinase K and peptides were incubated at 37 °C for 2–24 h. A solution (0.1% TFA/H2O/MeCN) was added to quench the enzymatic reaction. The peptides were evaluated using analytical HPLC and a Discovery® BIO Wide Pore C18 column (25 cm × 4.6 mm, solvent A: 0.1% TFA/water, solvent B: 0.1% TFA/MeCN, flow rate: […], gradient: 10–60% gradient of solvent B over 30 min). Reproducibility was confirmed by the two independent experiments.

[7] = Digestion assay with proteinase K; format: in vitro ADME; details: proteinase K (isolated protease); proteinase K 0.002% (v/v), peptide 1 mM, 37 °C, 24 h, read-out HPLC, two independent experiments; read-out: remaining peptide after treatment with proteinase K
Experimental: as §2

Sequence of proteinase K (P06873 106-384): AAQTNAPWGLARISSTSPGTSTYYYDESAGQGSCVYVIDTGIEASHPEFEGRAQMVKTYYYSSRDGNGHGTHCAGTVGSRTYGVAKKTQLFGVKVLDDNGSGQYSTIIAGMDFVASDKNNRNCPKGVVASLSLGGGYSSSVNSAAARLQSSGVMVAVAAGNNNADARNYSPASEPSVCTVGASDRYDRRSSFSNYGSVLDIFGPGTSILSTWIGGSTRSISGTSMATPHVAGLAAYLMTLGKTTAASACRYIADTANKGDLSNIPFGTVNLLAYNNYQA

Compound	MIC, Gram (–), E.Coli ([1]; DH5α, 18 h)	MIC, Gram (+), S.a. [2]	Hemolysis (concentration that showed hemolytic activity greater than 50%) [3]	MIC, Gram (–), P.a. [4]	MIC, Gram (–), MDRP [5]	MIC, Gram (–), E.Coli ([1]; E. coli DH5α, broth microdilution, 10^4 CFU per mL, 18 h at 35 °C, final concentration 0.39 to 100 μM, lowest concentration that completely inhibited growth)	prolongation of half life time (t1/2) against proteinase K versus peptide 1 [6]	remaining at 24 h, 1 mM [7]
CC[C@H](C)[C@H](NC(=O)CN)C(=O)N[C@@H](CCCNC(=N)N)C(=O)N[C@@H](CCCNC(=N)N)C(=O)N[C@@H](Cc1ccccc1)C(=O)N[C@@H](CC(C)C)C(=O)N[C@@H](CCCNC(=N)N)C(=O)N[C@@H](CO)C(=O)NC(C)(C)C(=O)N[C@@H](CCCNC(=N)N)C(=O)N[C@@H](CCCNC(=N)N)C(=O)N[C@@H](Cc1ccccc1)C(=O)N[C@H](C(=O)N[C@@H](CCCNC(=N)N)C(=O)NC(C)(C)C(=O)N[C@@H](Cc1ccccc1)C(=O)N[C@@H](CCCNC(=N)N)C(N)=O)C(C)C [Peptide 4] (H-GIRRFLRS[Aib]RRFVR[Aib]FR-NH2)	3.13 µM (≈ 6.86 µg/mL)	3.13 µM (≈ 6.86 µg/mL)	6.25 µM	12.5 µM (≈ 27.4 µg/mL)	12.5 µM (≈ 27.4 µg/mL)	–	–	–
GIGKFLHSAKKFGKAFVGEIMNS-NH2 [Mag2, magainin 2, reference compound]	–	100 µM	>100 µM	12.5 µM	12.5 µM	3.13 µM	–	–
CC[C@H](C)[C@H](NC(=O)CN)C(=O)N[C@@H](CCN)C(=O)N[C@@H](CCN)C(=O)N[C@@H](Cc1ccccc1)C(=O)N[C@@H](CC(C)C)C(=O)N[C@@H](CCN)C(=O)N[C@@H](CO)C(=O)NC(C)(C)C(=O)N[C@@H](CCN)C(=O)N[C@@H](CCN)C(=O)N[C@@H](Cc1ccccc1)C(=O)N[C@H](C(=O)N[C@@H](CCN)C(=O)NC(C)(C)C(=O)N[C@@H](Cc1ccccc1)C(=O)N[C@@H](CCN)C(N)=O)C(C)C [Peptide 3] (H-GI[Dab][Dab]FL[Dab]S[Aib][Dab][Dab]FV[Dab][Aib]F[Dab]-NH2)	3.13 µM (≈ 5.63 µg/mL)	12.5 µM (≈ 22.5 µg/mL)	25 µM	6.25 µM (≈ 11.2 µg/mL)	6.25 µM (≈ 11.2 µg/mL)	–	–	–
CC[C@H](C)[C@H](NC(=O)CN)C(=O)N[C@@H](Cc1c[nH]cn1)C(=O)N[C@@H](Cc1c[nH]cn1)C(=O)N[C@@H](Cc1ccccc1)C(=O)N[C@@H](CC(C)C)C(=O)N[C@@H](Cc1c[nH]cn1)C(=O)N[C@@H](CO)C(=O)NC(C)(C)C(=O)N[C@@H](Cc1c[nH]cn1)C(=O)N[C@@H](Cc1c[nH]cn1)C(=O)N[C@@H](Cc1ccccc1)C(=O)N[C@H](C(=O)N[C@@H](Cc1c[nH]cn1)C(=O)NC(C)(C)C(=O)N[C@@H](Cc1ccccc1)C(=O)N[C@@H](Cc1c[nH]cn1)C(N)=O)C(C)C [Peptide 5] (H-GIHHFLHS[Aib]HHFVH[Aib]FH-NH2)	>50 µM	>50 µM	>100 µM	>50 µM	>50 µM	–	–	–
CC[C@H](C)[C@H](NC(=O)CN)C(=O)N[C@@H](CCCN)C(=O)N[C@@H](CCCN)C(=O)N[C@@H](Cc1ccccc1)C(=O)N[C@@H](CC(C)C)C(=O)N[C@@H](CCCN)C(=O)N[C@@H](CO)C(=O)NC(C)(C)C(=O)N[C@@H](CCCN)C(=O)N[C@@H](CCCN)C(=O)N[C@@H](Cc1ccccc1)C(=O)N[C@H](C(=O)N[C@@H](CCCN)C(=O)NC(C)(C)C(=O)N[C@@H](Cc1ccccc1)C(=O)N[C@@H](CCCN)C(N)=O)C(C)C [Peptide 2] (H-GI[Orn][Orn]FL[Orn]S[Aib][Orn][Orn]FV[Orn][Aib]F[Orn]-NH2)	3.13 µM (≈ 5.94 µg/mL)	12.5 µM (≈ 23.7 µg/mL)	50 µM	6.25 µM (≈ 11.9 µg/mL)	3.13 µM (≈ 5.94 µg/mL)	–	up to approximately two times	41%
CC[C@H](C)[C@H](NC(=O)CN)C(=O)N[C@@H](CCCCN)C(=O)N[C@@H](CCCCN)C(=O)N[C@@H](Cc1ccccc1)C(=O)N[C@@H](CC(C)C)C(=O)N[C@@H](CCCCN)C(=O)N[C@@H](CO)C(=O)NC(C)(C)C(=O)N[C@@H](CCCCN)C(=O)N[C@@H](CCCCN)C(=O)N[C@@H](Cc1ccccc1)C(=O)N[C@H](C(=O)N[C@@H](CCCCN)C(=O)NC(C)(C)C(=O)N[C@@H](Cc1ccccc1)C(=O)N[C@@H](CCCCN)C(N)=O)C(C)C [Peptide 1] (H-GIKKFLKS[Aib]KKFVK[Aib]FK-NH2)	3.13 µM (≈ 6.25 µg/mL)	12.5 µM (≈ 24.9 µg/mL)	100 µM	3.13 µM (≈ 6.25 µg/mL)	3.13 µM (≈ 6.25 µg/mL)	–	–	~20%

Reference: publication PMC9854868, “Structure–Activity Relationship Studies of Substitutions of Cationic Amino Acid Residues on Antimicrobial Peptides” (Antibiotics, 2022)
